Assay [1] concerns the target T1, Human PD-L1/PD-1 (Homo sapiens, UniProt Q9NZQ7).
T1 construct: made in house; host or cells: HEK293T
The assay is described as follows: HTRF PD-1-Ig/PD-L1-His binding assay (human PD-L1). The note with it: read-out: HTRF Human PD-L1/PD-1 Binding Assay IC50. Put shortly: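 Interaction of Fc-tagged soluble PD-1 with His-tagged soluble PD-L1 is monitored by time-resolved FRET. Donor is europium cryptate anti-Ig (1 nM final) and acceptor is APC anti-His (20 nM final). Assay buffer is dPBS with 0.1% BSA and 0.05% Tween-20.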

Assay [2] addresses Hu PD-L1/PD-1 (Homo sapiens, UniProt Q9NZQ7). The assay is described as follows: Cell binding assay Hu PD-L1/PD-1 (Tables 11-13, cell line not given). It is filed as cell-based. The procedure: The ability of the macrocyclic peptides of the present disclosure to bind to Jurkat, mouse B cell line (LK35.2), and a human lung adenocarcinoma cell line (L2987) was investigated. Jurkat-PD-1 Cell Binding Assay. Phycoerythrin (PE) was covalently linked to the Ig epitope tag of human PD-L1-Ig and fluorescently-labeled PD-L1-Ig was used for binding studies with a Jurkat cell line over-expressing human PD-1 (Jurkat-PD-1). […] Cells were washed 3× in dPBS. Cells were resuspended in 200 μl of dPBS and binding was measured by flow cytometry. LK35.2-hPD-L1 Cell Binding Assay. Phycoerythrin (PE) was covalently linked to the Ig eptitope tag of human PD-1-Ig and fluorescently-labeled PD-1-Ig was used for binding studies with a mouse B cell line (LK35.2) stably over-expressing human PD-L1 (LK35.2-hPD-L1). Briefly, […] LK35.2-hPD-L1 cells were pre-incubated with inhibitor for 15 m in a 30 μl volume of RPMI supplemented with 2% fetal calf serum. 20 μl of PE-labeled PD-1-Ig (2 nM final), diluted in RPMI supplemented with 2% fetal calf serum, was dispensed on top of cells and inhibitor and binding was allowed to take place for 1 h at room temperature. Cells were washed 3× in dPBS. Cells were resuspended in 200 μl of dPBS and binding was measured by flow cytometry. L2987 Cellomics Cell Binding Assay. Phycoerythrin (PE) was covalently linked to the Ig eptitope tag of human PD-1-Ig and fluorescently-labeled PD-1-Ig was used for binding studies with a human lung adenocarcinoma cell line (L2987) which naturally expresses PD-L1. […] The following day, inhibitors were diluted in serum-free DMEM and 25 μl was dispensed on top of cells. […] Samples were incubated for 1 h at 37° C. followed by 2 washes in dPBS and fixation for 30 m with 4% paraformaldehyde. Samples were further washed 2× in dPBS. Hoechst (final 1 μg/ml) was added to final wash to stain nuclei. Plates were processed using a Cellomics […]®.

The mark [3] stands for this setting: Table 9, Compound No. 71 variant macrocyclic peptides.
[4] abbreviates: Table 13, Compound No. 71 series.
The mark [5] stands for this setting: Table 8, Compound No. 1 variant macrocyclic peptides.

Read-outs that look alike come from different tables or passages of the source. Positions of bridges follow the written chain, without caps; N, C: chain ends. Non-standard residues stand in square brackets, D forms with d. Residues, ends and D or L forms follow the SMILES beside them. ξ: configuration not given here. 1Nal = N[C@@H](Cc1cccc2ccccc12)C(=O)O; 2Nal = N[C@@H](Cc1ccc2ccccc2c1)C(=O)O; NMeF = CN[C@@H](Cc1ccccc1)C(=O)O; 3Thi = N[C@@H](Cc1ccsc1)C(=O)O; NMeNle = CCCC[C@H](NC)C(=O)O; ξY = NC(Cc1ccc(O)cc1)C(=O)O; NMeA = CN[C@@H](C)C(=O)O; ξP = O=C(O)C1CCCN1; ξC = NC(CS)C(=O)O; Sar = CNCC(=O)O

T1 sequence (Q9NZQ7 with tags, fused parts or gaps): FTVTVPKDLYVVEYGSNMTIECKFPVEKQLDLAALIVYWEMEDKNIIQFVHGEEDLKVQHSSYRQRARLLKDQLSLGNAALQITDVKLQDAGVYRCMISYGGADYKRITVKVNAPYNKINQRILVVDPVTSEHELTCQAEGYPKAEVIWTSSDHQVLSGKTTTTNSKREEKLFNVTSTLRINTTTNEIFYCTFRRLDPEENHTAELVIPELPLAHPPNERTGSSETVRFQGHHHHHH
Chain of Hu PD-L1/PD-1 (Q9NZQ7 19-290): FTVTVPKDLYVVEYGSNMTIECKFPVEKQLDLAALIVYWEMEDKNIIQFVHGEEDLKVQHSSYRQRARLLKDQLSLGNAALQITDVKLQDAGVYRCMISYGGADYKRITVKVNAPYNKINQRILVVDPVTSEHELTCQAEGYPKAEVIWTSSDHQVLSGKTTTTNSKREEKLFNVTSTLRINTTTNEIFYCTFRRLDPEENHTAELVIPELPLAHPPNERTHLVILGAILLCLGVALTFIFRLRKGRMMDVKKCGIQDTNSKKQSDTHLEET

Take `CCCC[C@H]1C(=O)N(C)CC(=O)N[C@@H](CC(=O)O)C(=O)N[C@@H](C(C)C)C(=O)N(C)[C@@H](Cc2ccccc2)C(=O)N[C@@H](Cc2ccc(O)cc2)C(=O)N(C)CC(=O)N[C@@H](Cc2c[nH]c3ccccc23)C(=O)NC(Cc2ccc(O)cc2)C(=O)N[C@@H](CC(C)C)C(=O)N[C@H](C(=O)NCC(N)=O)CSCC(=O)N[C@@H](Cc2ccccc2)C(=O)N[C@@H](Cc2ccccc2)C(=O)N1C` (stereo partly drawn) [Compound No. 74] ({CH2CO}-FF[NMeNle][Sar]DV[NMeF]Y[Sar]W[ξY]LCG-NH2; thioether N-13): the IC50 in assay [1] (setting [3]) and in assay [2] (setting [4]) was above 10000 nM throughout.

Regarding `CCCC[C@H]1C(=O)N(C)CC(=O)N[C@@H](CC(=O)O)C(=O)N[C@@H](C(C)C)C(=O)N(C)[C@@H](C)C(=O)N[C@@H](Cc2ccc(O)cc2)C(=O)N(C)CC(=O)N[C@@H](Cc2c[nH]c3ccccc23)C(=O)N[C@@H](Cc2ccc(O)cc2)C(=O)N[C@@H](CC(C)C)C(=O)N[C@H](C(=O)NCC(N)=O)CSCC(=O)N[C@@H](Cc2ccccc2)C(=O)N(C)[C@@H](Cc2ccccc2)C(=O)N1C` [Compound No. 81] (HELM PEPTIDE1{[O=C(C[*:3])[*:2]].F.[meF].[CCCC[C@@H](C(=O)[*:2])N(C)[*:1]].[Sar].D.V.[meA].Y.[Sar].W.Y.L.C.G.[am]}$PEPTIDE1,PEPTIDE1,1:R3-14:R3$$$V2.0), the IC50 in assay [1] (setting [3]) and in assay [2] (setting [4]) was above 10000 nM each time.

`CCCC[C@@H]1NC(=O)[C@H](Cc2ccccc2)N(C)C(=O)[C@H](Cc2ccccc2)NC(=O)CSC[C@@H](C(=O)NCC(N)=O)NC(=O)[C@H](CC(C)C)NC(=O)[C@H](Cc2ccc(O)cc2)NC(=O)[C@H](Cc2c[nH]c3ccccc23)NC(=O)CN(C)C(=O)[C@H](Cc2ccc(O)cc2)NC(=O)[C@H](Cc2ccccc2)N(C)C(=O)[C@H](C(C)C)NC(=O)[C@H](CC(=O)O)NC(=O)CN(C)C1=O` [Compound No. 76] (HELM PEPTIDE1{[O=C(C[*:3])[*:2]].F.[meF].[Nle].[Sar].D.V.[meF].Y.[Sar].W.Y.L.C.G.[am]}$PEPTIDE1,PEPTIDE1,1:R3-14:R3$$$V2.0): the IC50 in assay [1] (setting [3]) and in assay [2] (setting [4]) was above 10000 nM throughout.

Turning to `CCCC[C@H]1C(=O)N(C)[C@@H](CCCC)C(=O)N[C@@H](CCCNC(=N)N)C(=O)N[C@H](C(=O)NCC(N)=O)CSCC(=O)N[C@@H](Cc2ccccc2)C(=O)N(C)[C@@H](C)C(=O)N[C@@H](CC(N)=O)C(=O)N2CCCC2C(=O)N[C@@H](Cc2cnc[nH]2)C(=O)N[C@@H](CC(C)C)C(=O)N(C)CC(=O)N[C@@H](Cc2c[nH]c3ccccc23)C(=O)N[C@@H](C)C(=O)N[C@@H](Cc2c[nH]c3ccccc23)C(=O)N1C` (stereo partly drawn) [Compound No. 16] ({CH2CO}-F[NMeA]N[ξP]HL[Sar]WAW[NMeNle][NMeNle]RCG-NH2; thioether N-14), the IC50 amounted to 5 nM in assay [1] (setting [5]) and 13 nM in assay [2].

For the compound `CCCC[C@H]1C(=O)N(C)[C@@H](CCCC)C(=O)N[C@@H](CCCNC(=N)N)C(=O)N[C@H](C(=O)NCC(N)=O)CSCC(=O)N[C@@H](Cc2ccccc2)C(=O)N(C)[C@@H](C)C(=O)N[C@@H](CC(N)=O)C(=O)N2CCC[C@H]2C(=O)N[C@@H](Cc2c[nH]cn2)C(=O)N[C@@H](CC(C)C)C(=O)N[C@@H](CCN)C(=O)N[C@@H](Cc2c[nH]c3ccccc23)C(=O)N[C@@H](CO)C(=O)N[C@@H](Cc2c[nH]c3ccccc23)C(=O)N1C` [Compound No. 52], the results for the IC50 in assay [1] (setting [5]) and in assay [2] were 24 nM and 108 nM, respectively.

As for `CCCC[C@H]1C(=O)N(C)[C@@H](CCCC)C(=O)N[C@@H](CCCNC(=N)N)C(=O)N[C@@H](C(=O)NCC(N)=O)CSCC(=O)N[C@@H](Cc2ccc3ccccc3c2)C(=O)N(C)[C@@H](C)C(=O)N[C@@H](CC(N)=O)C(=O)N2CCC[C@H]2C(=O)N[C@@H](Cc2cnc[nH]2)C(=O)N[C@@H](CC(C)C)C(=O)N(C)CC(=O)N[C@@H](Cc2c[nH]c3ccccc23)C(=O)N[C@@H](CO)C(=O)N[C@@H](Cc2c[nH]c3ccccc23)C(=O)N1C` [Compound No. 26] ({CH2CO}-[2Nal][NMeA]NPHL[Sar]WSW[NMeNle][NMeNle]R[dC]G-NH2; thioether N-14), the IC50 in assay [1] (setting [5]) was 15 nM; in assay [2] it was 13 nM.

In the case of `CCCC[C@H]1C(=O)N(C)[C@@H](CCCC)C(=O)N[C@@H](CCCNC(=N)N)C(=O)N[C@H](C(=O)NCC(N)=O)CSCC(=O)N[C@@H](Cc2ccccc2)C(=O)N(C)[C@@H](C)C(=O)N[C@@H](CC(N)=O)C(=O)N2CCCC2C(=O)N[C@@H](Cc2cnc[nH]2)C(=O)N[C@@H](CC(C)C)C(=O)N(C)[C@@H](C)C(=O)N[C@@H](Cc2c[nH]c3ccccc23)C(=O)N[C@@H](CO)C(=O)N[C@@H](Cc2c[nH]c3ccccc23)C(=O)N1C` (stereo partly drawn) [Compound No. 13] ({CH2CO}-F[NMeA]N[ξP]HL[NMeA]WSW[NMeNle][NMeNle]RCG-NH2; thioether N-14), the IC50 is 16 nM in assay [1] (setting [5]) and 35 nM in assay [2].

Take `CCCC[C@H]1C(=O)N(C)[C@@H](CCCC)C(=O)N[C@@H](CCCNC(=N)N)C(=O)N[C@H](C(=O)NCC(N)=O)CSCC(=O)N[C@@H](Cc2ccccc2)C(=O)N(C)[C@@H](C)C(=O)N[C@@H](CC(N)=O)C(=O)N2CCC[C@H]2C(=O)N[C@@H](Cc2cnc[nH]2)C(=O)N[C@@H](CC(C)C)C(=O)N(C)CC(=O)N[C@@H](Cc2c[nH]c3ccccc23)C(=O)N[C@H](CC(N)=O)C(=O)N[C@@H](Cc2c[nH]c3ccccc23)C(=O)N1C` [Compound No. 58] ({CH2CO}-F[NMeA]NPHL[Sar]W[dN]W[NMeNle][NMeNle]RCG-NH2; thioether N-14): the IC50 was 8980 nM in assay [1] (setting [5]) and above 10000 nM in assay [2].

As to `CCCC[C@H]1C(=O)N(C)[C@@H](CCCC)C(=O)N[C@@H](C)C(=O)N[C@H](C(=O)NCC(N)=O)CSCC(=O)N[C@@H](Cc2ccccc2)C(=O)N(C)[C@@H](C)C(=O)N[C@@H](CC(N)=O)C(=O)N2CCCC2C(=O)N[C@@H](Cc2cnc[nH]2)C(=O)N[C@@H](CC(C)C)C(=O)N(C)CC(=O)N[C@@H](Cc2c[nH]c3ccccc23)C(=O)N[C@@H](CO)C(=O)N[C@@H](Cc2c[nH]c3ccccc23)C(=O)N1C` (stereo partly drawn) [Compound No. 22], the IC50 in assay [1] (setting [5]) turned out to be 3 nM; in assay [2] it was 28 nM.

As to `CCCC[C@H]1C(=O)N(C)[C@@H](CCCC)C(=O)N[C@@H](CCCNC(=N)N)C(=O)N[C@H](C(=O)NCC(N)=O)CSCC(=O)N[C@@H](Cc2ccc(O)cc2)C(=O)N(C)[C@@H](C)C(=O)N[C@@H](CC(N)=O)C(=O)N2CCC[C@H]2C(=O)N[C@@H](Cc2cnc[nH]2)C(=O)N[C@@H](CC(C)C)C(=O)N(C)CC(=O)N[C@@H](Cc2c[nH]c3ccccc23)C(=O)N[C@@H](CO)C(=O)N[C@@H](Cc2c[nH]c3ccccc23)C(=O)N1C` [Compound No. 30], the IC50 in assay [1] (setting [5]) worked out at 5 nM; in assay [2] it was 3 nM.

Turning to `CCCC[C@H]1C(=O)N(C)[C@@H](CCCC)C(=O)N[C@@H](CCCNC(=N)N)C(=O)N[C@@H](C(=O)NCC(N)=O)CSCC(=O)N[C@@H](Cc2cccc3ccccc23)C(=O)N(C)[C@@H](C)C(=O)N[C@@H](CC(N)=O)C(=O)N2CCC[C@H]2C(=O)N[C@@H](Cc2cnc[nH]2)C(=O)N[C@@H](CC(C)C)C(=O)N(C)CC(=O)N[C@@H](Cc2c[nH]c3ccccc23)C(=O)N[C@@H](CO)C(=O)N[C@@H](Cc2c[nH]c3ccccc23)C(=O)N1C` [Compound No. 27] ({CH2CO}-[1Nal][NMeA]NPHL[Sar]WSW[NMeNle][NMeNle]R[dC]G-NH2; thioether N-14), the IC50 turned out to be 20 nM in assay [1] (setting [5]) and 28 nM in assay [2].

With `CCCC[C@H]1C(=O)N(C)[C@@H](CCCC)C(=O)N[C@@H](CCCNC(=N)N)C(=O)NC(C(=O)NCC(N)=O)CSCC(=O)N[C@@H](Cc2ccsc2)C(=O)N(C)[C@@H](C)C(=O)N[C@@H](CC(N)=O)C(=O)N2CCC[C@H]2C(=O)N[C@@H](Cc2cnc[nH]2)C(=O)N[C@@H](CC(C)C)C(=O)N(C)CC(=O)N[C@@H](Cc2c[nH]c3ccccc23)C(=O)N[C@@H](CO)C(=O)N[C@@H](Cc2c[nH]c3ccccc23)C(=O)N1C` (stereo partly drawn) [Compound No. 40] ({CH2CO}-[3Thi][NMeA]NPHL[Sar]WSW[NMeNle][NMeNle]R[ξC]G-NH2; thioether N-14), the figures for the IC50 in assay [1] (setting [5]) and in assay [2] were 9 nM and 20 nM, respectively.

The record behind these values is patent US9850283B2, “Macrocyclic inhibitors of the PD-1/PD-L1 and CD80(B7-1)/PD-L1 protein/protein interactions” (BRISTOL-MYERS SQUIBB COMPANY, priority 2013, dated 2017).
